Data reported in patent publication US11884693B2, “1,3-acetonedicarboxylate-derived amphipathic compounds and uses thereof” (INDUSTRY-UNIVERSITY COOPERATION FOUNDATION HANYANG …, priority 2022, dated 2024).

Experiments:
[1] = Critical micelle concentration by fluorescence staining using diphenylhexatriene (DPH); format: physicochemical; conditions: aqueous solution
Protocol: A method of measuring the CMC is not particularly limited, but a method widely known in the art may be used, and for example, the CMC may be measured by a fluorescent staining method using diphenylhexatriene (DPH).
(§1) To check the characteristics of ACAs synthesized according to the synthesis methods of Examples 1 to 4, critical micelle concentrations (CMCs) of the ACAs and hydrodynamic diameters (DO of the formed micelles were measured.
(§2) Specifically, the critical micelle concentration (CMC) was measured by fluorescence staining using diphenylhexatriene (DPH), and the hydrodynamic diameters (Dh) of the micelles formed by each of the preparations (1.0% by weight) were measured by means of a dynamic light scattering (DLS) experiment. The measured results are shown in Table 1 in comparison to DDM and octyl glucoside neopentyl glycol (OGNG), two existing amphipathic molecule (detergent).

[2] = Micelle size by dynamic light scattering (DLS); format: physicochemical; conditions: micelles at 1.0% by weight
Protocol: A method of measuring the radius of the micelles is not particularly limited, but methods widely known in the related art may be used. For example, the radius of the micelles may be measured using a dynamic light scattering (DLS) experiment.
as §1, §2
In addition, the size distribution of the micelles formed by ACAs was examined by DLS. As a result, it was confirmed that the size of the micelles increased with an increasing length of the alkyl chain. This is because a compound having a cylindrical structure easy for self-assemblage is formed as more carbon is added to the hydrophobic end (FIG. 3).

[3] = Water solubility of the detergents; format: physicochemical
[4] = target: T1, melibiose permease of Salmonella typhimurium (MelBSt) (Salmonella typhimurium, UniProt P30878); assay: MelBSt extraction and thermal solubilization, SDS-PAGE and immunoblotting; format: biochemical; conditions: 1.5% (w/v) detergent, 90 min incubation at 55° C.
T1 construct: made in house; host or cells: E. coli DW2 (ΔmelB, ΔlacZY), plasmid pK95ΔΔHB/WT MelBSt/CH10
Protocol: Melibiose and other galactoside transporter MelB was produced by E. coli DW2 strain (ΔmelB and ΔlacZY) harboring pK95ΔΔHB/WT MelBSt/CH10 plasmid. The plasmid contains the gene encoding the wild-type melibiose permease of Salmonella typhimurium (MelBSt) with a 10-His tag at the C-terminus. Cell growth and membrane preparation were carried out as described in A. S. Ethayathulla, et al., Nat. Commun. 2014, 5, 3009. Protein assay was carried out with a Micro BCA kit (Thermo Scientific). The membrane samples containing MelBSt (10 mg/mL) in a solubilization buffer (20 mM sodium phosphate, pH 7.5, 200 mM NaCl, 10% glycerol and 20 mM melibiose) were mixed with each individual detergent (ACA-SCs, ACA-ACs and DDM) at 1.5% (w/v). Protein extractions were carried out at 0° C. for 90 min. The protein samples were further incubated at three different temperatures (45, 55, and 65° C.) for 90 min. After extraction and incubation, insoluble fractions were removed by ultracentrifugation at 355,590 g in a Beckman Optima™ MAX Ultracentrifuge using a TLA-100 rotor for 45 min at 4° C. […] membrane proteins without ultracentrifugation and detergent extracts after the ultracentrifugation with the same volume were loaded for analysis by SDS-15% PAGE, and immunoblotting with a HisProbe-HRP antibody (Thermo Scientific) was conducted for visualizing the MelBSt.

[5] = target: T2, mouse u-opioid receptor (MOR) (Mus musculus, UniProt P42866); assay: MOR long-term stability, [3H]-diprenorphine ligand binding; format: biochemical; conditions: 0.1 wt % detergent, 4° C., after 8 hours of incubation
T2 construct: made in house
Protocol: To perform a long-term stability analysis, MOR in 0.1% LMNG was purified. […] MOR in each detergent was incubated for five days at 4° C. and its ligand binding capacity was measured at regular intervals during the incubation. The ligand binding ability of the receptor was measured by adding ˜1 nM of radioactive [^3H]-diprenorphine (DPN). The [^3H]-DPN-containing mixture was immobilized to an anti-flag resin and the resin was collected using GF/B filter paper and scintillation fluid was added into the filter paper. Receptor-bound […] was measured with a scintillation counter (Beckman).

T1 sequence (P30878 whole entry): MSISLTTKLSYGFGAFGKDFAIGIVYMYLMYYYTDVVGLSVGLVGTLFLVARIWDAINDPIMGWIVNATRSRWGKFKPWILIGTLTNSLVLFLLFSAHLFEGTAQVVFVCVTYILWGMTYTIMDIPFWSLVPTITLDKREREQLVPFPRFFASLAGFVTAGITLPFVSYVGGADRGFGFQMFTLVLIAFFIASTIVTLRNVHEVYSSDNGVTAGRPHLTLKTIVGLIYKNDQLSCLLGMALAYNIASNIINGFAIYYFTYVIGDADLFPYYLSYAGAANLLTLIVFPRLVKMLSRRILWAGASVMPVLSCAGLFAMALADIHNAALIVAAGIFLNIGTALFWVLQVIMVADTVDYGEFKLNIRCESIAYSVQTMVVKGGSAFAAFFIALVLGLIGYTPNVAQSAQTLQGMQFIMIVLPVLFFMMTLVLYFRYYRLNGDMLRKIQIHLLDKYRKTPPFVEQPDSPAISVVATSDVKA
T2 sequence (P42866 whole entry): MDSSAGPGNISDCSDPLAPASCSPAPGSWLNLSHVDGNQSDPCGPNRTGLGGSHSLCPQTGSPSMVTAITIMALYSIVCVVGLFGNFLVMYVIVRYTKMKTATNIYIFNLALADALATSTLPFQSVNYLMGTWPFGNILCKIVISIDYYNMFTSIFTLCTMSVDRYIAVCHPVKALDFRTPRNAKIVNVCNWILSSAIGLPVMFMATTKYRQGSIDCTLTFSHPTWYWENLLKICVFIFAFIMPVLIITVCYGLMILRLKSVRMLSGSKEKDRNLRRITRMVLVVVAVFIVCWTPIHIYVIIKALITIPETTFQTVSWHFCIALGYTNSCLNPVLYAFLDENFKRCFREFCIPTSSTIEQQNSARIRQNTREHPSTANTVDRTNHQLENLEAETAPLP

| SMILES | CMC [1] [mM] | CMC (% by weight) [1] [% by weight] | Rh (nm) [2] [nm] | Solubility (% by weight) [3] [% by weight] | MelBSt solubilization ability [4] | residual activity of MOR [5] [%] |
| --- | --- | --- | --- | --- | --- | --- |
| CCCCCCCCCCC(CCCCCCCCCC)(COC1OC(CO)C(O)C(O)C1O)C(CCOC1OC(CO)C(O)C(O)C1O)OC1OC(CO)C(O)C(O)C1O (mixture of isomers) [ACA-AC10] | ~0.019 | ~0.0017 | 2.7 ± 0.2 | >10 | – | – |
| CCCCCCCCCCCC(CCCCCCCCCCC)(COC1OC(CO)C(O)C(O)C1O)C(CCOC1OC(CO)C(O)C(O)C1O)OC1OC(CO)C(O)C(O)C1O (mixture of isomers) [ACA-AC11] | ~0.014 | ~0.0013 | 3.3 ± 0.2 | ~10 | approximately 70% | – |
| CCCCCCCCCCCCC(CCCCCCCCCCCC)(COC1OC(CO)C(O)C(O)C1O)C(CCOC1OC(CO)C(O)C(O)C1O)OC1OC(CO)C(O)C(O)C1O (mixture of isomers) [ACA-AC12] | ~0.012 | ~0.0011 | 8.9 ± 0.7 | ~9 | – | – |
| CCCCCCCCCCCC(COC1OC(CO)C(O)C(O)C1O)C(OC1OC(CO)C(O)C(O)C1O)C(CCCCCCCCCCC)COC1OC(CO)C(O)C(O)C1O (mixture of isomers) [ACA-SC11] | ~0.010 | ~0.0009 | 2.9 ± 0.3 | ~10 | approximately 60% | – |
| CCCCCCCCCCCCC(COC1OC(CO)C(O)C(O)C1O)C(OC1OC(CO)C(O)C(O)C1O)C(CCCCCCCCCCCC)COC1OC(CO)C(O)C(O)C1O (mixture of isomers) [ACA-SC12] | ~0.007 | ~0.0007 | 8.3 ± 0.1 | ~10 | – | – |
| CCCCCCCCCCCCCC(COC1OC(CO)C(O)C(O)C1O)C(OC1OC(CO)C(O)C(O)C1O)C(CCCCCCCCCCCCC)COC1OC(CO)C(O)C(O)C1O (mixture of isomers) [ACA-SC13] | ~0.005 | ~0.0005 | 13.9 ± 1.1 | ~5 | – | – |
| CCCCCCCCCCCCO[C@@H]1O[C@H](CO)[C@@H](O[C@H]2O[C@H](CO)[C@@H](O)[C@H](O)[C@H]2O)[C@H](O)[C@H]1O [DDM, n-dodecyl-β-D-maltopyranoside, reference compound] | 0.17 | 0.0087 | 3.4 ± 0.3 | >10 | – | 10 |
| CCCCCCC(CCCCCC)(CO[C@@H]1O[C@H](CO)[C@@H](O)[C@H](O)[C@H]1O)CO[C@@H]1O[C@H](CO)[C@@H](O)[C@H](O)[C@H]1O [OGNG, octyl glucoside neopentyl glycol, reference compound] | ~1.0 | ~0.058 | 4.4 ± 0.3 | >10 | – | – |
